Consider two substances from patent US8343539B2, “Compounds that bind α5β1 integrin and methods of use” (Regents of the University of Minnesota, priority 2006, dated 2013).

The subject of the test is HUVECs. As to the kind of experiment: HUVEC adhesion timed experiments on LB membranes (Example 2). The test is classed as cell-based, human. How it is done: Surface preparation: Each peptide-amphiphile was used to form homogenous LB membranes as in previous work (Kokkoli Langmuir 2004; 20:2397-2404), except that both the water and 15 mm mica disks used had been autoclaved for sterility. All depositions were done at a surface pressure between 41 and 47 mN/m, well below the collapse pressure and in the liquid-condensed or solid phase. Approximately 90 minutes before cells were seeded on the LB films to begin cell adhesion experiments, mica surfaces were transferred into 1× phosphate buffered saline (PBS), with particular care taken to ensure films were not exposed to air. After 5-10 minutes of equilibration, surfaces were transferred into 24-well plates containing a supplemented MCDB-131 basal media (Sigma), as described in Example 1. Following surface transfer, 24-well plates were moved to a 37° C., 5% CO2 incubator for 45-60 minutes. As a control, 22 mm diameter human fibronectin-coated coverslips (BD Biosciences), referred to as FN, were put into 12-well plates, covered with 2 ml of the supplemented media, and also incubated for 45-60 minutes.
Cell culture: Human umbilical vein endothelial cells, HUVECs (Cambrex Corporation), were cultured as described previously (see Example 1). Only cells from passage 3 were used in all studies.
Cell adhesion experiments: Flasks of HUVECs with at least 90% confluency were washed with 1×PBS, trypsinized with 0.25% Trypsin-EDTA (Fisher Scientific), and neutralized with 2% fetal bovine serum in MCDB-131 basal media. The suspended cells from all flasks were placed in one 50 ml centrifuge tube and centrifuged at 1000 rpm for 5 minutes. The media was removed and the cell pellet was resuspended in the supplemented media described above. A hemocytometer was used to count the cells and then 497 cells/mm^2 were seeded onto both LB and FN surfaces. Surfaces were incubated with cells at 37° C., 5% CO2 for 1, 4, or 12 hours. Cell adhesion following these times was determined using the CyQuant cell proliferation assay kit (Molecular Probes), which measures the fluorescence of a cellular nucleic acid-binding dye using the SpectraMAX GeminiXS plate reader (Molecular Devices). Standard calibration curves were created within each experiment for both 12- and 24-well plates.

“Also recorded” adds a separate entry of the source. Where no end group is shown, it is not given here. (C16)2‑Glu‑C2 = lipid tail

On to “(C16)2-Glu-C2-KSSPHSRNSSSSSSSSSSRGDSP ({(C16)2‑Glu‑C2}-KSSPHSRNSSSSSSSSSSRGDSP) [Pr_d]”, for which the “HUVEC adhesion level (description)” value (1, 4 and 12 hours) is “good adhesion out to 4 hours”. The “Maintenance / decay of HUVEC adhesion over time” value (up to 12 hours) is “extreme drop-off at 12 hours”.

Turning to “(C16)2-Glu-C2-PHSRNSGSGSGSGSGRGDSP ({(C16)2‑Glu‑C2}-PHSRNSGSGSGSGSGRGDSP) [Pr_e]”, where the note is “1, 4 and 12 hours”, the “HUVEC adhesion compared with FN, overall” value was “superior cell adhesion performance; also recorded: outperformed” and the “HUVEC adhesion compared with Pr_a, overall” value is given as “superior cell adhesion performance; also recorded: outperformed”. Where the note is “1 hour”, the “HUVEC adhesion compared with FN” value is recorded as “higher HUVEC adhesion” and the “HUVEC adhesion compared with Pr_a” value is “higher HUVEC adhesion”. For the setting “4 hours”, the “HUVEC adhesion compared with FN” value was “higher adhesion than FN” and the “HUVEC adhesion compared with Pr_a” value was “no statistical difference”. Under “12 hours”, the “HUVEC adhesion compared with FN” value is “statistically higher than FN” and the “HUVEC adhesion compared with Pr_a” value is reported as “not statistically different”.
